Laboratory results from patent publication EP0348513A1, “STYRENE DERIVATIVE, POLYSTYRENE DERIVATIVE COMPRISING THE SAME, PROCESS FOR PREPARING SAID POLYSTYRENE DERIVATIVE, AND ULTRAVIOLET ABSORBER COMPRISING SAID STYRENE DERIVATIVE OR POLYSTYRENE DERIVATIVE” (Earth Chemical Co., Ltd., priority 1987, dated 1989).
“And” between values parts separate entries of the source, which are not always exact repeats. Equal entries are not always repeated.

Experiments:
skin of a quinea pig = test: Percutaneous absorption, Franz diffusion cell; format: in vitro ADME; conditions: 1 % aqueous solution, 33°C, 20 hours
Procedure: The skin of a quinea pig was peeled, washed with physiological saline and then set in a percutaneous absorption apparatus which was made in accordance with the description in Franz, T. J, J. Invest, Dermatol, 64, 190, 1975, by using a diffusion cell. The sample room was filled with 0.5 mi of a 1 % aqueous solution of the polystyrene derivative, and the acceptor was filled with physiological saline. After maintaining at 33°C for 20 hours while stirring with a magnetic stirrer, the physiological saline in the acceptor was taken out, and the ultraviolet absorbency was measured. In the same manner as above, ultraviolet absorbency was measured, using water alone as a negative control substance and a 1 % aqueous solution of p-aminobenzoic acid as a positive control substance. […] To the contrary, the spectrum of the positive control substance was shown the corresponding to an amount of 87.0 ppm of the compound.
The skin of a quinea pig was peeled, washed with physiological saline and then set in a percutaneous absorption apparatus which was made in accordance with the description in Franz, T. J, J. Invest, Dermatol, 64, 190, 1975, by using a diffusion cell. […] After maintaining at 33°C for 20 hours while stirring with a magnetic stirrer, the physiological saline in the acceptor was taken out, and the ultraviolet absorbency was measured. […]

[1] = Ultraviolet absorption spectrum (spectrophotometer, quartz cell, optical path 10 mm); format: physicochemical
Procedure: The measurement was carried out by using a spectrophotometer (UV-200S, made by SHIMADZU CORPORATION) as an ethanol solution of the sample having a suitable concentration with a quartz cell having an optical path of 10 mm. Also, the wavelength at the maximum absorption and the molar extinction coefficient were found from the results of the measurement as the ultraviolet absorptive properties. The results are shown below. • Wavelength at the maximum absorption: 332 nm Molar extinction coefficient: 44,000
The measurement was carried out by using a spectrophotometer (UV-200S, made by SHIMADZU CORPORATION), as a dimethylformamide solution of the sample having a suitable concentration and with a quartz cell having an optical path of 10 mm.
The measurement was carried out by using a spectrophotometer (UV-200S, made by SHIMADZU CORPORATION), as a dimethylformamide solution of the sample having a suitable concentration, with a quartz cell having an optical path of 10 mm.

guinea pigs = test: Sunscreen effect against ultraviolet irradiation of the skin; format: in vivo; conditions: sunscreen ointment or lotion containing the derivative, about 2 mg per 1 cm^2, ultraviolet rays 10 minutes, judged after 24 hours with the naked eyes; control area turned red
Procedure: (§1) Hair of. the notal of three guinea pigs was cut, and the drug (ointment) was applied in an amount of about 2 mg per 1 cm^2. Then, ultraviolet rays were irradiated for 10 minutes by a fluorescent light (FL-20SE, made by TOSHIBA CORPORATION) from a height of 10 cm from the notal.. On the other hand, as a control area, a base prepared without mixing the sunscreening agent was applied, and treatments were carried out in the same manner as.above. The judgement was conducted after 24 hours with the naked eyes.
as §1, with “of” for “of.”, “cm^2..” for “cm^2.”, “notal.” for “notal..”, “as above.” for “as.above.”

[2] = Transmittance of ultraviolet rays through a coated polyethylene sheet; format: physicochemical; conditions: wavelength of 330 nm
Procedure: There was dissolved 2.8 g of p-vinylbenzaldehyde 4-carboxymethyl-2-methylthiosemicarbazone in 1.5 g of triethanolamine and 23.7 g of water. The solution was applied onto a polyethylene sheet having a thickness of 0.5 mm (which was prepared in the same manner as the preparation process for the'control pieces in Example 11) in an amount of 2.0 mg/cm^2, and dried at room temperature to give a ultraviolet absorbent sheet.
The obtained ultraviolet absorbent sheet and untreated polyethylene sheet were cut into pieces having a size of 1 cm X 4 cm, respectively. The untreated polyethylene sheet was used as control piece, and transmittance of ultraviolet rays at a wavelength of 330 nm was measured by using a spectrophotometer. As the result, the transmittance of ultraviolet rays of the ultraviolet absorbent sheet was not more than 0.1 %. Accordingly, it was confirmed that not less than 99.9 % of ultraviolet rays were absorbed under the above condition.

[3] = ethanol solution, at the maximum absorption
[4] = commercially available sunscreening agent, at the first (shorter) maximum
[5] = commercially available sunscreening agent, at the second (longer) maximum
[6] = commercially available sunscreening agent, first (shorter) maximum
[7] = commercially available sunscreening agent, second (longer) maximum
[8] = commercially available sunscreening agent, solvent not stated
[9] = N,N-dimethylformamide solution, at the maximum absorption

Wavelength at the maximum absorption ([1]; ethanol solution)	Molar extinction coefficient [1, 3]	SMILES	further results
–	–	Nc1ccc(C(=O)O)cc1 [p-aminobenzoic acid]	amount of the compound in the acceptor corresponding to the spectrum (skin of a quinea pig): 87.0 ppm and 93.0 ppm
322 nm	40,000	C=Cc1ccc(C=NN(CCO)C(=S)NC)cc1 [Example 9, p-vinylbenzaldehyde 2-(β-hydroxyethyl)-4-methylthiosemicarbazone]	–
–	–	Cc1ccc(O)c(-n2nc3ccccc3n2)c1 [2-(2'-hydroxy-5'-methylphenylbenzotriazole), reference compound]	molar extinction coefficients [1, 4]: 12,000; molar extinction coefficients [1, 5]: 13,000; wavelengths at the maximum absorption [1, 6]: 297 nm; wavelengths at the maximum absorption [1, 7]: 337 nm
311 nm	33,000	C=Cc1ccc(C=NN(C)C(=O)NCC(=O)OCC)cc1 [Example 3, p-vinylbenzaldehyde 4-ethoxy carbonylmethyl-2-methylsemicarbazone]	sunscreen effect (color of the applied area compared with an area not irradiated) (guinea pigs): the color in the area on which the sunscreen lotion was applied was not changed
315 nm	34,000	C=Cc1ccc(C=NN(C)C(=S)NC)cc1 [Example 7, vinylbenzaldehyde 2,4-dimethylthiosemicarbazone]	–
–	–	COc1ccc(C(=O)c2ccccc2)c(O)c1 [2-hydroxy-4-methoxybenzophenone, reference compound]	molar extinction coefficients [1, 4]: 13,000; molar extinction coefficients [1, 5]: 8,200; wavelengths at the maximum absorption [1, 6]: 287 nm; wavelengths at the maximum absorption [1, 7]: 326 nm
331 nm	29,000	C=Cc1ccc(C=NN(C)C(=S)N(C)C)cc1 [Example 8, p-vinylbenzaldehyde 2,4,4-trimethylthiosemicarbazone]	–
315 nm	34,000	C=Cc1ccc(C=NN(CC(=O)O)C(=S)NC)cc1 [Example 4, vinylbenzaldehyde 2-carboxymethyl-4-methylthiosemicarbazone]	–
–	–	CC1CC(OC(=O)c2ccccc2O)CC(C)(C)C1 (stereo not drawn) [homomenthyl salicylate, reference compound]	Molar extinction coefficient [1, 8]: 4,400; Wavelength at the maximum absorption [1, 8]: 308 nm
332 nm	44,000	C=Cc1ccc(C=NN(C)C(=S)NCC(=O)O)cc1 [Example 2, p-vinylbenzaldehyde 4-carboxymethyl-2-methylthiosemicarbazone]	ultraviolet rays absorbed ([2]; same coated sheet): not less than 99.9%; transmittance of ultraviolet rays ([2]; triethanolamine/water solution applied at 2.0 mg/cm^2 on 0.5 mm polyethylene sheet): not more than 0.1%
332 nm	44,000	C=Cc1ccc(C=NN(C)C(=S)NCC(=O)OC)cc1 [Example 1, p-vinylbenzaldehyde 4-methoxycarbonylmethyl-2-methylthiosemicarbazone]	–
–	–	C=Cc1ccc(C=NN(C(=S)NC)c2ccccc2)cc1 [Example 11, p-vinylbenzaldehyde 4-methyl-2-phenylthiosemicarbazone]	Wavelength at the maximum absorption ([1]; N,N-dimethylformamide solution): 335 nm; Molar extinction coefficient [1, 9]: 38,000
–	–	C=Cc1ccc(C=NN(C)C(=S)Nc2ccccc2)cc1 [Example 12, p-vinylbenzaldehyde 2-methyl-4-phenylthiosemicarbazone]	Wavelength at the maximum absorption ([1]; N,N-dimethylformamide solution): 338 nm; Molar extinction coefficient [1, 9]: 40,000
381 nm	34,000	C=Cc1ccc(C=NN(CC(=O)OCC)C(=S)N(C)C)cc1 [Example 6, p-vinylbenzaldehyde 2-ethoxycarbonylmethyl-4,4-dimethylthiosemicarbazone]	–
332 nm	38,000	C=Cc1ccc(C=NN(CCCC(=O)O)C(=S)NC)cc1 [Example 5, p-vinylbenzaldehyde 2-(y-carboxypropyl)-4-methylthiosemicarbazone]	–
